Assay results taken from PubChem BioAssay (NCI).
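Growth conditions: 96-well plates. Treatment: test compound, 48 hours, 5 concentrations. Analysis: linear interpolation between bracketing concentrations; unreached endpoints set to highest concentration. GI50 marks 50% less growth. Definition used: TGI = concentration required for complete inhibition of growth.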

Columns and labels:
Test in all cases: NCI anticancer screen, dose series, 48 h
[1] = tested on: 786-0 renal
[2] = tested on: HL-60(TB) leukemia
[3] = tested on: K-562 leukemia
[4] = tested on: SK-MEL-28 melanoma
[5] = tested on: SF-539 CNS
[6] = tested on: OVCAR-5 ovarian
[7] = tested on: SW-620 colon
[8] = tested on: SF-268 CNS
[9] = tested on: NCI-H23 lung
[10] = tested on: NCI/ADR-RES ovarian
[11] = tested on: SNB-19 CNS
[12] = tested on: SR leukemia
[13] = tested on: NCI-H522 lung
[14] = tested on: BT-549 breast
[15] = tested on: CAKI-1 renal
[16] = tested on: UACC-257 melanoma
[17] = tested on: NCI-H226 lung
[18] = tested on: OVCAR-4 ovarian
[19] = tested on: SK-MEL-5 melanoma
[20] = tested on: MCF7 breast
[21] = tested on: UO-31 renal
[22] = tested on: U251 CNS
[23] = tested on: RPMI-8226 leukemia
[24] = tested on: IGROV1 ovarian
[25] = tested on: M14 melanoma
[26] = tested on: SF-295 CNS
[27] = tested on: A549 NSCLC
[28] = tested on: SN12C renal
[29] = tested on: RXF 393 renal
[30] = tested on: HT29 colon
[31] = tested on: HS 578T breast
[32] = tested on: A498 renal
[33] = tested on: TK-10 renal
[34] = tested on: HCT-15 colon
[35] = tested on: HCT-116 colon
[36] = tested on: OVCAR-3 ovarian
[37] = tested on: SK-MEL-2 melanoma
[38] = tested on: MOLT-4 leukemia
[39] = tested on: UACC-62 melanoma
[40] = tested on: NCI-H460 lung
[41] = tested on: LOX IMVI melanoma
[42] = tested on: EKVX NSCLC
[43] = tested on: DU-145 prostate
[44] = tested on: OVCAR-8 ovarian
[45] = tested on: ACHN renal
[46] = tested on: PC-3 prostate
[47] = tested on: MDA-MB-231 breast
[48] = tested on: MDA-MB-435
[49] = tested on: SNB-75 CNS
[50] = tested on: KM12 colon
[51] = tested on: COLO 205 colon
[52] = tested on: T-47D breast
[53] = tested on: SK-OV-3 ovarian
[54] = tested on: HOP-62 NSCLC
[55] = tested on: HCC-2998 colon
[56] = tested on: MALME-3M melanoma
[57] = tested on: HOP-92 NSCLC

For `COc1c(N2CCN(CN3C(=O)C(=O)c4cc(Cl)ccc43)C(C)C2)c(F)cc2c(=O)c(C(=O)O)cn(C3CC3)c12` (configuration not stated), the GI50 [1] was > 100 µM, the TGI [1] was > 100 µM and the GI50 [2] was 7.29 µM. For the same molecule, the TGI [2] was > 100 µM, the GI50 [3] was 14 µM and the TGI [3] was > 100 µM. The GI50 [4] was 97.5 µM, the TGI [4] was > 100 µM and the GI50 [5] was > 100 µM. For the same molecule, the TGI [5] was > 100 µM, the GI50 [6] was 85.9 µM and the TGI [6] was > 100 µM. For the same molecule, the GI50 [7] was 14.2 µM, the TGI [7] was 75.8 µM and the GI50 [8] was 26.8 µM. The TGI [8] was > 100 µM, the GI50 [9] was 22 µM and the TGI [9] was > 100 µM. For the same molecule, the GI50 [10] was 76.4 µM, the TGI [10] was > 100 µM and the GI50 [11] was 92.2 µM. For the same molecule, the TGI [11] was > 100 µM, the GI50 [12] was 4.51 µM and the TGI [12] was > 100 µM. The GI50 [13] was > 100 µM, the TGI [13] was > 100 µM and the GI50 [14] was 37.3 µM. For the same molecule, the TGI [14] was > 100 µM, the GI50 [15] was 24.7 µM and the TGI [15] was > 100 µM. It also gave a GI50 [16] of 27.7 µM, a TGI [16] of 72.9 µM and a GI50 [17] of 71 µM. The TGI [17] was > 100 µM, the GI50 [18] was 55.5 µM and the TGI [18] was > 100 µM. The GI50 [19] was 15.6 µM, the TGI [19] was 34.8 µM and the GI50 [20] was 26.6 µM. For the same molecule, the TGI [20] was > 100 µM, the GI50 [21] was > 100 µM and the TGI [21] was > 100 µM. For the same molecule, the GI50 [22] was 41.3 µM, the TGI [22] was > 100 µM and the GI50 [23] was 9.07 µM. For the same molecule, the TGI [23] was 25.7 µM, the GI50 [24] was > 100 µM and the TGI [24] was > 100 µM. The GI50 [25] was 69.6 µM, the TGI [25] was > 100 µM and the GI50 [26] was 91.7 µM. The TGI [26] was > 100 µM, the GI50 [27] was 49.4 µM and the TGI [27] was > 100 µM. For the same molecule, the GI50 [28] was 48.2 µM, the TGI [28] was > 100 µM and the GI50 [29] was 34.4 µM. For the same molecule, the TGI [29] was > 100 µM, the GI50 [30] was 30.9 µM and the TGI [30] was > 100 µM. For the same molecule, the GI50 [31] was 30.4 µM, the TGI [31] was > 100 µM and the GI50 [32] was 11.9 µM. The TGI [32] was 80.9 µM, the GI50 [33] was 27.1 µM and the TGI [33] was > 100 µM. For the same molecule, the GI50 [34] was 31.7 µM, the TGI [34] was > 100 µM and the GI50 [35] was 29.8 µM. The TGI [35] was > 100 µM, the GI50 [36] was 30 µM and the TGI [36] was > 100 µM. The GI50 [37] was > 100 µM, the TGI [37] was > 100 µM and the GI50 [38] was 4.98 µM. For the same molecule, the TGI [38] was > 100 µM, the GI50 [39] was 20.6 µM and the TGI [39] was 65.3 µM. The GI50 [40] was 30.6 µM, the TGI [40] was > 100 µM and the GI50 [41] was 19 µM. The TGI [41] was > 100 µM, the GI50 [42] was 13.7 µM and the TGI [42] was > 100 µM. For the same molecule, the GI50 [43] was 70.6 µM, the TGI [43] was > 100 µM and the GI50 [44] was 51.9 µM. For the same molecule, the TGI [44] was > 100 µM, the GI50 [45] was 32.1 µM and the TGI [45] was > 100 µM. For the same molecule, the GI50 [46] was 10.8 µM, the TGI [46] was > 100 µM and the GI50 [47] was 27.3 µM. The TGI [47] was > 100 µM, the GI50 [48] was 17.2 µM and the TGI [48] was 36.3 µM. The GI50 [49] was > 100 µM, the TGI [49] was > 100 µM and the GI50 [50] was 35.2 µM. For the same molecule, the TGI [50] was > 100 µM, the GI50 [51] was 80.6 µM and the TGI [51] was > 100 µM.
`COc1cc(C)c2sc3ccccc3c(=O)c2c1NCCN(C)C` showed a GI50 [1] of 8.34 µM, a TGI [1] of 22.2 µM and a GI50 [2] of 4.68 µM. The TGI [2] was 16.3 µM, the GI50 [3] was 2.3 µM and the TGI [3] was 4.61 µM. It also gave a GI50 [4] of 1.83 µM, a TGI [4] of 3.42 µM and a GI50 [5] of 4.73 µM. For the same molecule, the TGI [5] was 17.4 µM, the GI50 [6] was 9.57 µM and the TGI [6] was 22.3 µM. It also gave a GI50 [7] of 3.39 µM, a TGI [7] of 14.5 µM and a GI50 [8] of 8.57 µM. It also gave a TGI [8] of 22.3 µM, a GI50 [9] of 13.1 µM and a TGI [9] of 28 µM. For the same molecule, the GI50 [52] was 2.58 µM, the TGI [52] was 9.4 µM and the GI50 [10] was 12.4 µM. The TGI [10] was 27 µM, the GI50 [11] was 12.9 µM and the TGI [11] was 27.2 µM. For the same molecule, the GI50 [12] was 2.79 µM, the TGI [12] was 7.91 µM and the GI50 [13] was 4.91 µM. It also gave a TGI [13] of 17.9 µM, a GI50 [14] of 12.5 µM and a TGI [14] of 25.4 µM. For the same molecule, the GI50 [15] was 5.87 µM, the TGI [15] was 19.4 µM and the GI50 [16] was 2.06 µM. The TGI [16] was 3.97 µM, the GI50 [53] was 10.9 µM and the TGI [53] was 23.6 µM. For the same molecule, the GI50 [17] was 2.3 µM, the TGI [17] was 6.81 µM and the GI50 [18] was 8.08 µM. For the same molecule, the TGI [18] was 20.9 µM, the GI50 [19] was 1.67 µM and the TGI [19] was 3.08 µM. For the same molecule, the GI50 [20] was 2.4 µM, the TGI [20] was 10.2 µM and the GI50 [21] was 3.46 µM. It also gave a TGI [21] of 16.1 µM, a GI50 [22] of 3.66 µM and a TGI [22] of 14.1 µM. For the same molecule, the GI50 [23] was 2.85 µM, the TGI [23] was 8.87 µM and the GI50 [24] was 3.56 µM. The TGI [24] was 14.5 µM, the GI50 [25] was 2.16 µM and the TGI [25] was 4.33 µM. It also gave a GI50 [26] of 6.25 µM, a TGI [26] of 19.5 µM and a GI50 [27] of 4.05 µM. It also gave a TGI [27] of 15.7 µM, a GI50 [28] of 5.41 µM and a TGI [28] of 20 µM. It also gave a GI50 [29] of 2.4 µM, a TGI [29] of 9.41 µM and a GI50 [30] of 2.62 µM. For the same molecule, the TGI [30] was 9.15 µM, the GI50 [54] was 7.1 µM and the TGI [54] was 19.6 µM. For the same molecule, the GI50 [32] was 8.83 µM, the TGI [32] was 22.1 µM and the GI50 [33] was 8.83 µM. For the same molecule, the TGI [33] was 21.2 µM, the GI50 [34] was 3.13 µM and the TGI [34] was 11.2 µM. For the same molecule, the GI50 [35] was 3.73 µM, the TGI [35] was 13.6 µM and the GI50 [36] was 10.5 µM. The TGI [36] was 23.9 µM, the GI50 [37] was 6.64 µM and the TGI [37] was 19.6 µM. For the same molecule, the GI50 [38] was 2.58 µM, the TGI [38] was 6.81 µM and the GI50 [39] was 1.87 µM. For the same molecule, the TGI [39] was 3.8 µM, the GI50 [40] was 3.26 µM and the TGI [40] was 12.3 µM. It also gave a GI50 [41] of 3.66 µM, a TGI [41] of 13.1 µM and a GI50 [43] of 7 µM. It also gave a TGI [43] of 20 µM, a GI50 [44] of 5.44 µM and a TGI [44] of 19.1 µM. It also gave a GI50 [45] of 2.97 µM, a TGI [45] of 11.3 µM and a GI50 [46] of 4.28 µM. For the same molecule, the TGI [46] was 17.4 µM, the GI50 [47] was 3.48 µM and the TGI [47] was 15.9 µM. For the same molecule, the GI50 [48] was 2.91 µM, the TGI [48] was 10.6 µM and the GI50 [49] was 2.21 µM. It also gave a TGI [49] of 13.2 µM, a GI50 [50] of 5.22 µM and a TGI [50] of 18.9 µM. It also gave a GI50 [55] of 2.99 µM, a TGI [55] of 9.03 µM and a GI50 [56] of 2.11 µM. It also gave a TGI [56] of 5.39 µM, a GI50 [57] of 1.51 µM and a TGI [57] of 8.64 µM. The GI50 [51] was 1.86 µM and the TGI [51] was 3.51 µM.
